Measured values from patent publication US10723728B2, “Prodrugs of Nh-acidic compounds” (ALKERMES PHARMA IRELAND LIMITED, priority 2009, dated 2020).

Assays:
[1] = Pharmacokinetic evaluation of prodrugs in rats following intramuscular injection; type: in vivo, Male Sprague-Dawley rats; conditions: rat, IM injection
Procedure: Male Sprague-Dawley rats (Charles River Laboratories, Wilmington, Mass.) were obtained. Approximately 24 rats were used in each study. Rats were approximately 350-375 g at time of arrival. Rats were housed 2 per cage with ad libitum chow and water. Environmental conditions in the housing room: 64-67 OF, 30% to 70% relative humidity, and 12:12-h light:dark cycle. All experiments were approved by the institutional animal care and use committee.
(§1) Rats were dosed IM by means of a 25 gauge, ⅝ inch needle with 1 cc syringe 0.3 mL suspension was withdrawn from the vial containing the test compound (see Table E). The […] was injected in the muscles of the hind limb after anesthesia with isoflourane. Blood samples were collected via a lateral tail vein after brief anesthesia with Isoflurane. A 27½-G needle and 1 cc syringe without an anticoagulant was used for the blood collection. Approximately 350 μL of whole blood was collected at each sampling time-point of 6 hours, 24 hours and 2, 5, 7, 9, 12, 14, 21, 28, 35 days after administration. Once collected, whole blood was immediately transferred to tubes containing K2 EDTA, inverted 10-15 times and immediately placed on ice. The tubes were centrifuged for 2 minutes at >14,000 g's (11500 RPMs using Eppendorf Centrifuge 5417C, F45-30-11 rotor) at room temperature to separate plasma. Plasma samples were transferred to labeled plain tubes (MICROTAINER®) and stored frozen at <−70° C.
(§2) Drug concentrations in plasma samples were analyzed by liquid chromatography-mass spectroscopy using appropriate parameters for each compound. Half-life, volume of distribution, clearance, maximal concentration, and AUC were calculated by using WinNonlin Version 5.2_software (Pharsight, St. Louis, Mo.).

[2] = system: D-Amphetamine-induced locomotion; experiment: Pharmacodynamic study in amphetamine-induced locomotion model; conditions: D-AMPH 1.5 mg/kg IP
[3] = Pharmacokinetic study for pioglitazone, Compounds 1002 and 1008; type: in vivo, rats; conditions: rat, intramuscular; pioglitazone prodrug, crystalline material in 2% CMC, 0.2% Tween 20, PBS buffer pH 6.7; dose 67 mg/kg in table
Procedure: as §1, §2
PK profile of compounds 1002 and 1008 was compared to pioglitazone using a similar model as described above. 20 mg of pioglitazone or 20 mg equivilant of pioglitazone prodrug was administered intramuscularly.

[4] = crystalline suspension or oil emulsion
[5] = oral oil solution (PO), 0.66, 10 and 20 mg/rat
[6] = solution in ethyl oleate, dose (mg/kg)
[7] = PO, at the higher dose of 20 mg

SMILES	AUC0-14 [1, 4] [ng·days/mL]	AUC0-T [1, 4] [ng·days/mL]	further results
CC(=O)OCN1C(=O)CCc2ccc(OCCCCN3CCN(c4cccc(Cl)c4Cl)CC3)cc21 [Compound 1, (7-(4-(4-(2,3-dichlorophenyl)piperazin-1-yl)butoxy)-2-oxo-3,4-dihydroquinolin-1(2H)-yl)methyl acetate]	1673	1938	
CCCC(=O)OCN1C(=O)CCc2ccc(OCCCCN3CCN(c4cccc(Cl)c4Cl)CC3)cc21 [Compound 2, (7-(4-(4-(2,3-dichlorophenyl)piperazin-1-yl)butoxy)-2-oxo-3,4-dihydroquinolin-1(2H)-yl)methyl butyrate]	1016.9	1139.8	
CCCCCC(=O)OCN1C(=O)CCc2ccc(OCCCCN3CCN(c4cccc(Cl)c4Cl)CC3)cc21 [Compound 4, (7-(4-(4-(2,3-dichlorophenyl)piperazin-1-yl)butoxy)-2-oxo-3,4-dihydroquinolin-1(2H)-yl)methyl hexanoate]	1455.4	1678	dose dependence of inhibition of distance travelled [2, 5]: did not appear to be dose dependent; inhibition of increase in total distance traveled caused by D-AMPH [2, 5]: significantly inhibited the increases in distance traveled caused by D-AMPH
CCCCCCCC(=O)OCN1C(=O)CCc2ccc(OCCCCN3CCN(c4cccc(Cl)c4Cl)CC3)cc21 [Compound 5, (7-(4-(4-(2,3-dichlorophenyl)piperazin-1-yl)butoxy)-2-oxo-3,4-dihydroquinolin-1(2H)-yl)methyl octanoate]	1728.6	1742	
CCCCCCCCCC(=O)OCN1C(=O)CCc2ccc(OCCCCN3CCN(c4cccc(Cl)c4Cl)CC3)cc21 [Compound 6, (7-(4-(4-(2,3-dichlorophenyl)piperazin-1-yl)butoxy)-2-oxo-3,4-dihydroquinolin-1(2H)-yl)methyl decanoate]	1490.3	1678.1	AUC0-14 [1, 6]: 67 ng·days/mL; AUC0-T [1, 6]: 327 ng·days/mL
CCCCCCCCCCCC(=O)OCN1C(=O)CCc2ccc(OCCCCN3CCN(c4cccc(Cl)c4Cl)CC3)cc21 [Compound 7, (7-(4-(4-(2,3-dichlorophenyl)piperazin-1-yl)butoxy)-2-oxo-3,4-dihydroquinolin-1(2H)-yl)methyl dodecanoate]	512.0	1169.5	inhibition of increase in total distance traveled caused by D-AMPH [2, 7]: did appear to significantly inhibit increases in distance traveled caused by D-AMPH
CCCCCCCCCCCCCCCC(=O)OCN1C(=O)CCc2ccc(OCCCCN3CCN(c4cccc(Cl)c4Cl)CC3)cc21 [Compound 10, (7-(4-(4-(2,3-dichlorophenyl)piperazin-1-yl)butoxy)-2-oxo-3,4-dihydroquinolin-1(2H)-yl)methyl palmitate]	302	786.6	
O=C(OCN1C(=O)CCc2ccc(OCCCCN3CCN(c4cccc(Cl)c4Cl)CC3)cc21)c1ccccc1 [Compound 31, (7-(4-(4-(2,3-dichlorophenyl)piperazin-1-yl)butoxy)-2-oxo-3,4-dihydroquinolin-1(2H)-yl)methyl benzoate]	819.0	997	
CC(C)C(=O)OCN1C(=O)CCc2ccc(OCCCCN3CCN(c4cccc(Cl)c4Cl)CC3)cc21 [Compound 32, (7-(4-(4-(2,3-dichlorophenyl)piperazin-1-yl)butoxy)-2-oxo-3,4-dihydroquinolin-1(2H)-yl)methyl isobutyrate]	1334.4	1486	
O=C(OCN1C(=O)CCc2ccc(OCCCCN3CCN(c4cccc(Cl)c4Cl)CC3)cc21)C1CCC1 [Compound 34, (7-(4-(4-(2,3-dichlorophenyl)piperazin-1-yl)butoxy)-2-oxo-3,4-dihydroquinolin-1(2H)-yl)methyl cyclobutanecarboxylate]	2050	2095.8	
CNC(=O)OCN1C(=O)CCc2ccc(OCCCCN3CCN(c4cccc(Cl)c4Cl)CC3)cc21 [Compound 47, (7-(4-(4-(2,3-dichlorophenyl)piperazin-1-yl)butoxy)-2-oxo-3,4-dihydroquinolin-1(2H)-yl)methyl methylcarbamate]	113	176	inhibition of increase in total distance traveled caused by D-AMPH [2, 7]: did appear to significantly inhibit increases in distance traveled caused by D-AMPH
CC(C)OC(=O)OCN1C(=O)CCc2ccc(OCCCCN3CCN(c4cccc(Cl)c4Cl)CC3)cc21 [Compound 48, (7-(4-(4-(2,3-dichlorophenyl)piperazin-1-yl)butoxy)-2-oxo-3,4-dihydroquinolin-1(2H)-yl)methyl isopropyl carbonate]	2238	2264.6	
O=C(OCN1C(=O)CCc2ccc(OCCCCN3CCN(c4cccc(Cl)c4Cl)CC3)cc21)N1CCOCC1 [Compound 49, (7-(4-(4-(2,3-dichlorophenyl)piperazin-1-yl)butoxy)-2-oxo-3,4-dihydroquinolin-1(2H)-yl)methyl morpholine-4-carboxylate]	152	199.7	
CCOC(=O)OCN1C(=O)CCc2ccc(OCCCCN3CCN(c4cccc(Cl)c4Cl)CC3)cc21 [Compound 79, (7-(4-(4-(2,3-dichlorophenyl)piperazin-1-yl)butoxy)-2-oxo-3,4-dihydroquinolin-1(2H)-yl)methyl ethyl carbonate]	907.4	940	AUC0-14 [1, 6]: 954 ng·days/mL
CCCCCCOC(=O)OCN1C(=O)CCc2ccc(OCCCCN3CCN(c4cccc(Cl)c4Cl)CC3)cc21 [Compound 81, (7-(4-(4-(2,3-dichlorophenyl)piperazin-1-yl)butoxy)-2-oxo-3,4-dihydroquinolin-1(2H)-yl)methyl hexyl carbonate]			AUC0-14 [1, 6]: 584 ng·days/mL
CCCCCCCCCCOC(=O)OCN1C(=O)CCc2ccc(OCCCCN3CCN(c4cccc(Cl)c4Cl)CC3)cc21 [Compound 82, decyl (7-(4-(4-(2,3-dichlorophenyl)piperazin-1-yl)butoxy)-2-oxo-3,4-dihydroquinolin-1(2H)-yl)methyl carbonate]			AUC0-14 [1, 6]: 204 ng·days/mL
CC(C)CCOC(=O)OCN1C(=O)CCc2ccc(OCCCCN3CCN(c4cccc(Cl)c4Cl)CC3)cc21 [Compound 85, (7-(4-(4-(2,3-dichlorophenyl)piperazin-1-yl)butoxy)-2-oxo-3,4-dihydroquinolin-1(2H)-yl)methyl isopentyl carbonate]	1233.9	1348	
CCCC(=O)OCN1C(=O)SC(Cc2ccc(OCCc3ccc(CC)cn3)cc2)C1=O (stereo not shown) [Compound 1002, (5-(4-(2-(5-ethylpyridin-2-yl)ethoxy)benzyl)-2,4-dioxothiazolidin-3-yl)methyl butyrate]			AUC0-14 [3]: 5350 ng·days/mL; AUC0-T [3]: 5972 ng·days/mL
CCCCCCCCCCCCCCCC(=O)OCN1C(=O)SC(Cc2ccc(OCCc3ccc(CC)cn3)cc2)C1=O (stereo not shown) [Compound 1008, (5-(4-(2-(5-ethylpyridin-2-yl)ethoxy)benzyl)-2,4-dioxothiazolidin-3-yl)methyl palmitoate]			AUC0-14 [3]: 5000 ng·days/mL; AUC0-T [3]: 6763 ng·days/mL
